Common to all, as to assay: Test B pre-/postemergence plant response
Type in all cases: in vivo

Assay [1] has as its system barnyardgrass (Echinochloa crus-galli). The following applies: for pest or weed control at 125 g/ha: 125 g ai/ha; for Plant response rating, Barnyardgrass: 1000 g ai/ha. From the text:
(§1) Seeds of plant species selected from bamyardgrass (Echinochloa crus-galli), kochia (Kochia scoparia), ragweed (common ragweed, Ambrosia elatior), Italian ryegrass (Lolium multiflorum), large (Lg) crabgrass (Digitaria sanguinalis), giant foxtail (Setaria faberii), momingglory (Ipomoea spp.), pigweed (Amaranthus retroflexus), velvetleaf (Abutilon theophrasti), wheat (Triticum aestivum), and corn (Zea mays) were planted into a blend of loam soil and sand and treated preemergence with a directed soil spray using test chemicals formulated in a non-phytotoxic solvent mixture which included a surfactant. At the same time, plants selected from these crop and weed species and also blackgrass (Alopecurus myosuroides), and galium (catchweed bedstraw, Galium aparine) were planted in pots containing the same blend of loam soil and sand and treated with postemergence applications of test chemicals formulated in the same manner. Plants ranged in height from 2 to 10 cm and were in the one- to two-leaf stage for the postemergence treatment. Treated plants and untreated controls were maintained in a greenhouse for approximately 10 days, after which time all treated plants were compared to untreated controls and visually evaluated for injury. Plant response ratings, summarized in Table B, are based on a 0 to 100 scale where 0 is no effect and 100 is complete control. A dash (-) response means no test result.

The next assay has as its system corn (Zea mays). The following applies: for Corn plant response rating (crop injury, 0 = no effect, 100 = complete kill) at 125 g/ha: 125 g ai/ha; for Plant response rating, Corn: 1000 g ai/ha.
Description: as §1

Assay [2] relates to giant foxtail (Setaria faberii). The note with it: for pest or weed control at 125 g/ha: 125 g ai/ha; for Plant response rating, Foxtail, Giant: 1000 g ai/ha.
Description: as §1

For assay [3], the system named is large (Lg) crabgrass (Digitaria sanguinalis). The following applies: for pest or weed control at 125 g/ha: 125 g ai/ha; for Plant response rating, Crabgrass, Large: 1000 g ai/ha.
Description: as §1

Assay [4] relates to morningglory (Ipomoea spp.). The note with it: for pest or weed control at 125 g/ha: 125 g ai/ha; for Plant response rating, Morningglory: 1000 g ai/ha.
Description: as §1

Assay [5] concerns pigweed (Amaranthus retroflexus). The note with it: for pest or weed control at 125 g/ha: 125 g ai/ha; for Plant response rating, Pigweed: 1000 g ai/ha.
Description: as §1

In assay [6] the test system is velvetleaf (Abutilon theophrasti). The note with it: for pest or weed control at 125 g/ha: 125 g ai/ha; for Plant response rating, Velvetleaf: 1000 g ai/ha.
Description: as §1

Assay [7] deals with wheat (Triticum aestivum). The note with it: for plant injury at 125 g/ha: 125 g ai/ha; for Plant response rating, Wheat: 1000 g ai/ha, 0 to 100 scale (0 no effect, 100 complete control).
Description: as §1

Setting [8] is: Preemergence, 31 g ai/ha, 0 to 100 scale (0 no effect, 100 complete control).
Where [9] appears, read: Postemergence, 0 to 100 scale (0 no effect, 100 complete control).
Setting [10] is: Preemergence, 0 to 100 scale (0 no effect, 100 complete control).

Like-named read-outs stand apart in the source and are kept apart here.

Take `FC(F)(F)c1cnc(Oc2ccccc2-c2cnc(Br)s2)nc1` [Compound 15, 2-[2-(2-bromo-5-thiazolyl)phenoxy]-5-(trifluoromethyl)pyrimidine]: the pest or weed control at 31 g/ha in assay [1] (Echinochloa crus-galli, post-emergence, 240 h, 31 g ai/ha, Postemergence, 0 to 100 scale, 0 no effect, 100 complete control, read-out: Plant response rating, Barnyardgrass) came out at 0%; in assay [2] (Setaria faberi, post-emergence, 240 h, 31 g ai/ha, Postemergence, 0 to 100 scale, 0 no effect, 100 complete control, read-out: Plant response rating, Foxtail, Giant), 0%; in assay [3] (Digitaria sanguinalis, post-emergence, 240 h, 31 g ai/ha, Postemergence, 0 to 100 scale, 0 no effect, 100 complete control, read-out: Plant response rating, Crabgrass, Large), 0%; in assay [4] (Ipomoea, post-emergence, 240 h, 31 g ai/ha, Postemergence, 0 to 100 scale, 0 no effect, 100 complete control, read-out: Plant response rating, Morningglory) it was 0%; in assay [5] (Amaranthus retroflexus, post-emergence, 240 h, 31 g ai/ha, Postemergence, 0 to 100 scale, 0 no effect, 100 complete control, read-out: Plant response rating, Pigweed), 60%; in assay [6] (Abutilon theophrasti, post-emergence, 240 h, 31 g ai/ha, Postemergence, 0 to 100 scale, 0 no effect, 100 complete control, read-out: Plant response rating, Velvetleaf), 0%. Besides, the pest or weed control at 125 g/ha turned out to be 0% in assay [1] (Echinochloa crus-galli, post-emergence, 240 h, postemergence, 0 to 100 scale, 0 no effect, 100 complete control, read-out: Plant response rating, Barnyardgrass); 0% in assay [1] (Echinochloa crus-galli, pre-emergence, 240 h, Preemergence, 0 to 100 scale where 0 is no effect and 100 is complete control, read-out: Plant response rating, Barnyardgrass); 0% in assay [2] (Setaria faberi, post-emergence, 240 h, postemergence, 0 to 100 scale, 0 no effect, 100 complete control, read-out: Plant response rating, Foxtail, Giant); 0% in assay [2] (Setaria faberi, pre-emergence, 240 h, Preemergence, 0 to 100 scale where 0 is no effect and 100 is complete control, read-out: Plant response rating, Foxtail, Giant); 10% in assay [3] (Digitaria sanguinalis, post-emergence, 240 h, postemergence, 0 to 100 scale, 0 no effect, 100 complete control, read-out: Plant response rating, Crabgrass, Large); 0% in assay [3] (Digitaria sanguinalis, pre-emergence, 240 h, Preemergence, 0 to 100 scale where 0 is no effect and 100 is complete control, read-out: Plant response rating, Crabgrass, Large). Also, the pest or weed control at 125 g/ha in assay [4] (Ipomoea, post-emergence, 240 h, postemergence, 0 to 100 scale, 0 no effect, 100 complete control, read-out: Plant response rating, Morningglory) was 10%; in assay [4] (Ipomoea, pre-emergence, 240 h, Preemergence, 0 to 100 scale where 0 is no effect and 100 is complete control, read-out: Plant response rating, Morningglory) it was 0%; in assay [5] (Amaranthus retroflexus, post-emergence, 240 h, postemergence, 0 to 100 scale, 0 no effect, 100 complete control, read-out: Plant response rating, Pigweed), 70%; in assay [5] (Amaranthus retroflexus, pre-emergence, 240 h, Preemergence, 0 to 100 scale where 0 is no effect and 100 is complete control, read-out: Plant response rating, Pigweed) it was 0%; in assay [6] (Abutilon theophrasti, post-emergence, 240 h, postemergence, 0 to 100 scale, 0 no effect, 100 complete control, read-out: Plant response rating, Velvetleaf), 0%; in assay [6] (Abutilon theophrasti, pre-emergence, 240 h, Preemergence, 0 to 100 scale where 0 is no effect and 100 is complete control, read-out: Plant response rating, Velvetleaf) it was 0%. The “Barnyardgrass plant response rating” value in assay [1] (setting [8]) turned out to be 0. Also, in the assay with corn (Zea mays) (setting [8]), the “Corn plant response rating” value worked out at 0. The Corn plant response rating (crop injury, 0 = no effect, 100 = complete kill) at 31 g/ha in the assay with corn (Zea mays) (Zea mays, post-emergence, 240 h, 31 g ai/ha, Postemergence, 0 to 100 scale, 0 no effect, 100 complete control) was 0%. Besides, the Corn plant response rating (crop injury, 0 = no effect, 100 = complete kill) at 125 g/ha in the assay on corn (Zea mays) (Zea mays, post-emergence, 240 h, postemergence, 0 to 100 scale, 0 no effect, 100 complete control) was found to be 0%; with corn (Zea mays) (Zea mays, pre-emergence, 240 h, Preemergence, 0 to 100 scale where 0 is no effect and 100 is complete control), 0%. Besides, the “Foxtail, Giant plant response rating” value in assay [2] (setting [8]) was 0. Also, in assay [3] (setting [8]), the “Crabgrass, Large plant response rating” value is listed as 0. The “Morningglory plant response rating” value in assay [4] (setting [8]) came out at 0. For the same compound, the “Pigweed plant response rating” value in assay [5] (setting [8]) came out at 0. Further, the “Velvetleaf plant response rating” value in assay [6] (setting [8]) was determined as 0. Besides, in assay [7] (Triticum aestivum, post-emergence, 240 h, 31 g ai/ha, Postemergence, 0 to 100 scale, 0 no effect, 100 complete control, read-out: Plant response rating, Wheat), the plant injury at 31 g/ha was found to be 0%. The plant injury at 125 g/ha is 0% in assay [7] (Triticum aestivum, post-emergence, 240 h, postemergence, 0 to 100 scale, 0 no effect, 100 complete control, read-out: Plant response rating, Wheat); 0% in assay [7] (Triticum aestivum, pre-emergence, 240 h, Preemergence, 0 to 100 scale where 0 is no effect and 100 is complete control, read-out: Plant response rating, Wheat).

As for `Clc1cnc(Oc2ccccc2-c2cscn2)nc1` [Compound 8], the entries for the “Plant response rating, Barnyardgrass” value in assay [1] (setting [9]) and in assay [1] (setting [10]) were 0 and 30, respectively. Besides, the “Plant response rating, Corn” value in the assay on corn (Zea mays) (setting [9]) and in the assay with corn (Zea mays) (setting [10]) was 0 each time. The “Plant response rating, Foxtail, Giant” value in assay [2] (setting [9]) is reported as 0; in assay [2] (setting [10]) it was 60. Moreover, the results for the “Plant response rating, Crabgrass, Large” value in assay [3] (setting [9]) and in assay [3] (setting [10]) were 10 and 80, respectively. Besides, the results for the “Plant response rating, Morningglory” value in assay [4] (setting [9]) and in assay [4] (setting [10]) were 10 and 0, respectively. The “Plant response rating, Pigweed” value in assay [5] (setting [9]) is on record as 70; in assay [5] (setting [10]) it was 100. The “Plant response rating, Velvetleaf” value in assay [6] (setting [9]) and in assay [6] (setting [10]) was 30 throughout. The “Plant response rating, Wheat” value in assay [7] (Postemergence) and in assay [7] (Preemergence) was 0 in each case.

`N#CCc1cc(-c2ccccc2Oc2ncc(Cl)cn2)no1` [Compound 36]: the “Plant response rating, Barnyardgrass” value in assay [1] (setting [9]) turned out to be 90; in assay [1] (setting [10]) it was 30. Besides, the figures for the “Plant response rating, Corn” value with corn (Zea mays) (setting [9]) and in the assay on corn (Zea mays) (setting [10]) were 50 and 0, respectively. Besides, the “Plant response rating, Foxtail, Giant” value in assay [2] (setting [9]) and in assay [2] (setting [10]) was 90 each time. Also, the entries for the “Plant response rating, Crabgrass, Large” value in assay [3] (setting [9]) and in assay [3] (setting [10]) were 80 and 100, respectively. Besides, the “Plant response rating, Morningglory” value in assay [4] (setting [9]) came out at 20; in assay [4] (setting [10]), 10. Besides, the “Plant response rating, Pigweed” value in assay [5] (setting [9]) stood at 90; in assay [5] (setting [10]), 100. For the same compound, the “Plant response rating, Velvetleaf” value in assay [6] (setting [9]) is reported as 100. The “Plant response rating, Wheat” value in assay [7] (Postemergence) is 50; in assay [7] (Preemergence), 0.

As to `Brc1cnc(Oc2ccccc2-c2nnco2)nc1` [Compound 5], the “Plant response rating, Barnyardgrass” value in assay [1] (setting [9]) came to 20; in assay [1] (setting [10]), 0. Besides, the “Plant response rating, Corn” value with corn (Zea mays) (setting [9]) and in the assay with corn (Zea mays) (setting [10]) was 0 in each case. For the same compound, the “Plant response rating, Foxtail, Giant” value in assay [2] (setting [9]) and in assay [2] (setting [10]) was 0 in each case. Also, the “Plant response rating, Crabgrass, Large” value in assay [3] (setting [9]) and in assay [3] (setting [10]) was 0 in each case. For the same compound, the “Plant response rating, Morningglory” value in assay [4] (setting [9]) came out at 20; in assay [4] (setting [10]), 0. Also, the entries for the “Plant response rating, Pigweed” value in assay [5] (setting [9]) and in assay [5] (setting [10]) were 70 and 90, respectively. Besides, the figures for the “Plant response rating, Velvetleaf” value in assay [6] (setting [9]) and in assay [6] (setting [10]) were 30 and 20, respectively. The “Plant response rating, Wheat” value in assay [7] (Postemergence) and in assay [7] (Preemergence) was 0 in each case.

The values are drawn from patent publication US10131652B2, “Pyrimidinyloxy benzene derivatives as herbicides” (E. I. DU PONT DE NEMOURS AND COMPANY, priority 2014, dated 2018).
